Earlier results, collected in patent publication US20070072940A1, “Use of quinol derivatives thereof for cosmetic, dietary supplement or pharmaceutical compositions and compositions thereby obtained” (priority 2005, published 2007).

Tests used:
S. aureus = conditions: in vitro
B. subtilis = conditions: in vitro
fibrin = conditions: through an action on the polymerization of fibrin
[1] = system: skin trauma such as bruising or blemishes; conditions: applied topically
[2] = results combined with previous research
[3] = system: low density lipoprotein lipids
[4] = system: nutritional muscular dystrophy
[5] = system: lipid peroxidation in liposomes

Cc1c(C)c2c(c(C)c1OP(=O)(O)O)CC[C@@](C)(CCC[C@H](C)CCC[C@H](C)CCCC(C)C)O2 [DL alpha tocopherol phosphate]
antimicrobial action on S. aureus (S. aureus): antimicrobial action
antimicrobial action on B. subtilis (B. subtilis): antimicrobial action
anticoagulant action (fibrin): anticoagulant action

C/C(=C\Cc1c(C)c(O)c2ccccc2c1O)CCC[C@H](C)CCC[C@H](C)CCCC(C)C [Phylloquinol]
free radical scavenging ability, comparison (free radical): greater than that of alpha tocopherol quinol, plastoquinol, and alpha tocopherol

CC(C)=CCC/C(C)=C/CC/C(C)=C/CC/C(C)=C/CC/C(C)=C/CC/C(C)=C/CC/C(C)=C/CC/C(C)=C/CC/C(C)=C/Cc1cc(O)c(C)c(C)c1O [Plastoquinol]
free radical scavenging ability, comparison (free radical): greater than that of ubiquinol and alpha tocopherol

CC1=C(C/C=C(\C)CCC[C@H](C)CCC[C@H](C)CCCC(C)C)C(=O)c2ccccc2C1=O [Vitamin K, Phytonadione]
reduction of severity of skin trauma [1]: ability to reduce the severity of skin trauma

Cc1c(C)c(O)c(CC[C@](C)(O)CCC[C@H](C)CCC[C@H](C)CCCC(C)C)c(C)c1O [alpha tocopherol quinol]
toxicity [2]: non-toxic
interception of aqueous peroxyl radicals [3]: directly intercepted aqueous peroxyl radicals
reduction of lipoprotein ubiquinone to ubiquinol ([3]; associated with LDL): instantaneously reduce the lipoprotein ubiquinone to ubiquinol
quenching of alpha tocopheroxyl radicals ([3]; in oxidizing LDL): rapidly quenched alpha tocopheroxyl radicals
inhibition of radical initiated oxidation of low density lipoprotein lipids ([3]; in vitro): efficient multifunctional inhibitor
free radical scavenging ability, comparison (free radical): greater than that of ubiquinol and alpha tocopherol
prevention and treatment of nutritional muscular dystrophy ([4]; rabbit, injectable and oral): could prevent and treat nutritional muscular dystrophy
prevention of creatinuria and loss of weight caused by vitamin E deficiency ([4]; vitamin E deficiency): could prevent creatinuria and loss of weight
inhibition of lipid peroxidation [5]: shown to inhibit lipid peroxidation
inhibition of lipid peroxidation in liposomes, comparison ([5]; liposomes, compared with alpha tocopherol quinone): superior inhibition of lipid peroxidation in liposomes

CC1=C(C)C(=O)C(CC[C@](C)(O)CCC[C@H](C)CCC[C@H](C)CCCC(C)C)=C(C)C1=O [alpha tocopherol quinone]
toxicity [2]: non-toxic
inhibition of lipid peroxidation [5]: shown to inhibit lipid peroxidation

Menaquinol
free radical scavenging ability, comparison (free radical): greater than that of alpha tocopherol quinol, plastoquinol, and alpha tocopherol
